In ChEMBL document CHEMBL5537153, “Modifications to 1-(4-(2-Bis(4-fluorophenyl)methyl)sulfinyl)alkyl Alicyclic Amines That Improve Metabolic Stability and Retain an Atypical DAT Inhibitor Profile” (J Med Chem, 2024):

How the values were obtained:
[1] = target: Sodium-dependent dopamine transporter (Rattus norvegicus, UniProt P23977); test: Displacement of [3H]WIN35428 from DAT in Sprague-Dawley rat striatum incubated for 120 mins by scintillation counting analysis; type: tissue-based
[2] = target: Sodium-dependent serotonin transporter (Rattus norvegicus, UniProt P31652); test: Displacement of [3H]citalopram from SERT in Sprague-Dawley rat brainstem incubated for 60 mins by scintillation counting analysis; type: tissue-based
Rattus norvegicus = species: Rattus norvegicus; test: Selectivity ratio of Ki for SERT in Sprague-Dawley rat brainstem to Ki for DAT in Sprague-Dawley rat striatum
[3] = target: T1, Sodium-dependent dopamine transporter (Homo sapiens, UniProt Q01959); test: Displacement of [3H]WIN35428 from wild type human DAT expressed in COS-7 cells incubated for 1.5 hrs by scintillation counting analysis; type: cell-based
[4] = Displacement of [3H]WIN35428 from human DAT Y156F mutant expessed in COS-7 cells incubated for 1.5 hrs by beta scintillation counting analysis; type: cell-based
[5] = target: T1, Sodium-dependent dopamine transporter; test: Inhibition of [3H]dopamine uptake from wild type human DAT expressed in COS-7 cells preincubated for 30 mins followed by [3H]dopamine addition and measured after 5 mins by beta scintillation counting analysis; type: cell-based
[6] = Inhibition of [3H]dopamine uptake from human DAT Y335A mutant expressed in COS-7 cells preincubated for 30 mins followed by [3H]dopamine addition and measured after 10 mins by beta scintillation counting analysis; type: cell-based
[7] = Displacement of [3H]nisoxetine from NET in Sprague-Dawley rat prefrontal cortex incubated for 180 mins by microbeta microscintillation counting analysis; type: tissue-based
[8] = Metabolic stability of the compound in mouse liver microsomes assessed as parent compound remaining at 10 uM measured after 60 mins in presence of NADPH regenerating system by LC/MS analysis; type: ADME, Microsome; settings: read-out: Stability
[9] = Induction of behavioural effects in wild type C57BL/6J mouse assessed as locomotor activity at 3 to 30 mg/kg, ip measured every 10 mins for 3 hrs by open field test; type: toxicity, organism-based; settings: in vivo, dose 3-30 mg/kg
[10] = Metabolic stability of the compound in rat liver microsomes assessed as parent compound remaining at 10 uM measured after 60 mins in presence of NADPH regenerating system by LC/MS analysis; type: ADME, Microsome; settings: for Stability: microsomes, 1 h, 10 µM
[11] = Induction of behavioural effects in wild type C57BL/6J mouse assessed as increase in locomotor activity at 30 mg/kg, ip measured after 20 mins by open field test; type: toxicity, organism-based; settings: in vivo

T1 sequence (Q01959 whole entry): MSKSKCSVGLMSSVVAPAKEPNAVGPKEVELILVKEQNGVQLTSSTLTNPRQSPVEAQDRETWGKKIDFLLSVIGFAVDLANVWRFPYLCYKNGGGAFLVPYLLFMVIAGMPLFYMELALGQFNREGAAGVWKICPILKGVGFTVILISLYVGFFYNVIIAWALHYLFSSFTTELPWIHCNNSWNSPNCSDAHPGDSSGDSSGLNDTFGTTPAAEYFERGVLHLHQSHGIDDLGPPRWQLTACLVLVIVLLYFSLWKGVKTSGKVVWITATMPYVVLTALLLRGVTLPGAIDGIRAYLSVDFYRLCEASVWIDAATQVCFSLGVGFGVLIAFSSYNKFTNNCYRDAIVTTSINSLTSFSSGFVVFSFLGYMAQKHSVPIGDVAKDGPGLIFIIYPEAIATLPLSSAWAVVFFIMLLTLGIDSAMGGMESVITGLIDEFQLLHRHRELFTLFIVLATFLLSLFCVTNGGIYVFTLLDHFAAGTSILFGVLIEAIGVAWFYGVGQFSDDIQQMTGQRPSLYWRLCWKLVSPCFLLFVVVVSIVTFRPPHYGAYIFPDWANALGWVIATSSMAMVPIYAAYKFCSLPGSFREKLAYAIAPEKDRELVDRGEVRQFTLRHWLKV
Sequence of Sodium-dependent serotonin transporter (P31652 whole entry): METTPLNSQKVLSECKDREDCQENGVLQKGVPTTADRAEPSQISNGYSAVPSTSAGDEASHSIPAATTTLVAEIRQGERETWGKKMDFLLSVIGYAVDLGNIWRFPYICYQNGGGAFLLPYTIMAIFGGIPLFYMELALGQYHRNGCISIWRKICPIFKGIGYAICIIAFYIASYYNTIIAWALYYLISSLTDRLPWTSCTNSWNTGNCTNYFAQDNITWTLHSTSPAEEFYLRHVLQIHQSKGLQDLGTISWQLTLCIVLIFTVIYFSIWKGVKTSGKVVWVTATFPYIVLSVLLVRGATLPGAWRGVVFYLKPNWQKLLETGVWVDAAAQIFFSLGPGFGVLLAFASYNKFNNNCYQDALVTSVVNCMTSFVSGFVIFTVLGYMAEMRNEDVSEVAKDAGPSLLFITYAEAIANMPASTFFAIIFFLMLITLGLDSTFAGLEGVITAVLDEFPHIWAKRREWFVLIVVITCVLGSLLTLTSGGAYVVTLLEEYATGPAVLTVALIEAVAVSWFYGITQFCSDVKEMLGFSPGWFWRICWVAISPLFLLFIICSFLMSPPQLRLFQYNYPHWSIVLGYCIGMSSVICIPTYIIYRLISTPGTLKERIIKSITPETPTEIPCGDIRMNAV
Sequence of Sodium-dependent dopamine transporter (Rattus norvegicus, UniProt P23977) (P23977 whole entry): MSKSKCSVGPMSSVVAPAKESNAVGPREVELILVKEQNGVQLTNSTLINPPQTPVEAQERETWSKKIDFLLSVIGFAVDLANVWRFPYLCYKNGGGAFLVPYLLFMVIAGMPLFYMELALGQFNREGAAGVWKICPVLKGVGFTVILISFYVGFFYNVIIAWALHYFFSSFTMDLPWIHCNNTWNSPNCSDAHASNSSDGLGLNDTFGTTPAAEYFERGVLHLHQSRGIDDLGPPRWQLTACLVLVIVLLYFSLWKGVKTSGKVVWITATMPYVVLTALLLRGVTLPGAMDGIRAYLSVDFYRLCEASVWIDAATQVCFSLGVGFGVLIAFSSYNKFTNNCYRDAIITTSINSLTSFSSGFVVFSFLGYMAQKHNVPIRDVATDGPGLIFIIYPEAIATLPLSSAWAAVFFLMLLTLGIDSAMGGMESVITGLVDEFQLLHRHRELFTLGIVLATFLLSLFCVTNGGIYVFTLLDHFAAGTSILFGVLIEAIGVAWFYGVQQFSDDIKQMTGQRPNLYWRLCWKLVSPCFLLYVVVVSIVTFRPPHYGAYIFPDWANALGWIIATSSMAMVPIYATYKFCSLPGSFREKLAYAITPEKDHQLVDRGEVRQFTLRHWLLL

| SMILES | Ki [1] [nM] | Ki [2] [nM] | Ratio Ki (Rattus norvegicus) | further results |
| --- | --- | --- | --- | --- |
| CC(F)CN1[C@H](C)CN(CC[S+]([O-])C(c2ccc(F)cc2)c2ccc(F)cc2)C[C@@H]1C (some centres not stated) | 1050 | > 100000 | > 95 | – |
| Fc1ccc(C(SCCN2CCCN(c3ncccn3)CC2)c2ccc(F)cc2)cc1 | 508 | 732 | 1 | – |
| Fc1ccc(C(SCCN2CCN(c3ccncc3)CC2)c2ccc(F)cc2)cc1 | 91.6 | 136 | 1 | Ki [3]: 106 nM; Ki [4]: 393 nM; Ki [5]: 326 nM; Ki [6]: 4050 nM |
| OC(Cc1ccc(F)cc1)CN1CCCN(CCSC(c2ccc(F)cc2)c2ccc(F)cc2)CC1 (configuration not stated) | 14.3 | 504 | 35 | – |
| [O-][S+](CCN1CCCN(CC(O)Cc2ccccc2)CC1)C(c1ccc(F)cc1)c1ccc(F)cc1 (configuration not stated) | 8.37 | 3520 | 421 | Ki [7]: 4040 nM; Ki [3]: 32 nM; Ki [4]: 184 nM; Ki [5]: 40 nM; Ki [6]: 1440 nM; remaining at 1 h, 10 µM [8]: 0%; Activity [9]: Non-Toxic |
| COc1ccc(CC(O)CN2CCCN(CC[S+]([O-])C(c3ccc(F)cc3)c3ccc(F)cc3)CC2)cc1 (configuration not stated) | 33.4 | 2670 | 80 | remaining at 1 h, 10 µM [8]: 20% |
| COc1ccc(N2CCN(CCSC(c3ccc(F)cc3)c3ccc(F)cc3)CC2)cc1 | 662 | 780 | 1 | – |
| CC(F)CN1[C@H](C)CN(CCSC(c2ccc(F)cc2)c2ccc(F)cc2)C[C@@H]1C (some centres not stated) | 135 | 13400 | 99 | – |
| C[C@@H](O)CN1CCC(CCSC(c2ccc(F)cc2)c2ccc(F)cc2)CC1 | 84.5 | 759 | 9 | – |
| CC(O)CN1CCN(CC[S+]([O-])C(c2ccc(F)cc2)c2ccc(F)cc2)CC1 (configuration not stated) | – | – | – | Ki [3]: 1020 nM; Ki [4]: 7560 nM; Ki [5]: 917 nM; Ki [6]: 14400 nM; remaining at 1 h, 10 µM ([10]; liver microsomes, read-out: Stability): 72%; Activity [9]: Non-Toxic |
| C[C@H](O)CN1CCC(CCSC(c2ccc(F)cc2)c2ccc(F)cc2)CC1 | 34.5 | 1200 | 35 | – |
| CC(O)CN1CCC(CC[S+]([O-])C(c2ccc(F)cc2)c2ccc(F)cc2)CC1 (configuration not stated) | 180 | 16100 | 89 | Ki [7]: > 100000 nM; Ki [3]: 355 nM; Ki [4]: 2360 nM; Ki [5]: 949 nM; Stability [10]: 100%; Activity [9]: Non-Toxic |
| COc1ccc(N2CCN(CC[S+]([O-])C(c3ccc(F)cc3)c3ccc(F)cc3)CC2)cc1 (configuration not stated) | 6300 | 18100 | 3 | – |
| [O-][S+](CCN1CCCN(c2ncccn2)CC1)C(c1ccc(F)cc1)c1ccc(F)cc1 (configuration not stated) | 24800 | 28000 | 1 | – |
| [O-][S+](CCN1CCN(CC(O)Cc2ccccc2)CC1)C(c1ccc(F)cc1)c1ccc(F)cc1 (configuration not stated) | – | – | – | Ki [3]: 10.7 nM; Ki [4]: 116 nM; Ki [5]: 0.806 nM; Ki [6]: 537 nM; remaining at 1 h, 10 µM [8]: 34%; Activity [11]: Toxic |
| CC(O)CN1CCN(CCSC(c2ccc(F)cc2)c2ccc(F)cc2)CC1 (configuration not stated) | – | – | – | remaining at 1 h, 10 µM [8]: 6% |
| CC(O)CN1CCCN(CCSC(c2ccc(F)cc2)c2ccc(F)cc2)CC1 (configuration not stated) | 63.4 | 2430 | 38 | Ki [3]: 80 nM; Ki [4]: 232 nM; Ki [5]: 163 nM; Ki [6]: 3300 nM; remaining at 1 h, 10 µM [8]: 12% |
| C[C@@H](O)CN1CCC(CC[S+]([O-])C(c2ccc(F)cc2)c2ccc(F)cc2)CC1 (some centres not stated) | 276 | 34800 | 126 | – |
| Fc1ccc(C(SCCN2CCN(c3ncccn3)CC2)c2ccc(F)cc2)cc1 | 725 | 923 | 1 | – |
| OC(Cc1ccccc1)CN1CCCN(CCSC(c2ccc(F)cc2)c2ccc(F)cc2)CC1 (configuration not stated) | 7.23 | 288 | 40 | – |
| CC(O)CN1CCCN(CC[S+]([O-])C(c2ccc(F)cc2)c2ccc(F)cc2)CC1 (configuration not stated) | 417 | 26000 | 62 | – |
| [O-][S+](CCC1CCN(CC(O)Cc2ccccc2)CC1)C(c1ccc(F)cc1)c1ccc(F)cc1 (configuration not stated) | 2.64 | 818 | 310 | Stability [10]: 68% |
| C[C@H](O)CN1CCC(CC[S+]([O-])C(c2ccc(F)cc2)c2ccc(F)cc2)CC1 (some centres not stated) | 382 | 14300 | 37 | – |
| OC(Cc1ccccc1)CN1CCC(CCSC(c2ccc(F)cc2)c2ccc(F)cc2)CC1 (configuration not stated) | 5.83 | 201 | 34 | – |
| COc1ccc(CC(O)CN2CCCN(CCSC(c3ccc(F)cc3)c3ccc(F)cc3)CC2)cc1 (configuration not stated) | 16.5 | 360 | 22 | – |
| [O-][S+](CCN1CCN(c2ncccn2)CC1)C(c1ccc(F)cc1)c1ccc(F)cc1 (configuration not stated) | 22100 | 46300 | 2 | – |
| CC(O)CN1C(C)CN(CCSC(c2ccc(F)cc2)c2ccc(F)cc2)CC1C (configuration not stated) | – | – | – | remaining at 1 h, 10 µM [8]: 68% |
| [O-][S+](CCN1CCN(c2ccncc2)CC1)C(c1ccc(F)cc1)c1ccc(F)cc1 (configuration not stated) | 2480 | 3460 | 1 | – |
| CC(O)CN1CCC(CCSC(c2ccc(F)cc2)c2ccc(F)cc2)CC1 (configuration not stated) | 67 | 1920 | 29 | – |
| [O-][S+](CCN1CCCN(CC(O)Cc2ccc(F)cc2)CC1)C(c1ccc(F)cc1)c1ccc(F)cc1 (configuration not stated) | 6.81 | 2150 | 316 | remaining at 1 h, 10 µM [8]: 15% |
